# Where two headings read alike, the source gives them in different places.
# What was measured:
# SARS-CoV-2 3CLpro [1] = target: T1, SARS-CoV-2 3CLpro (Severe acute respiratory syndrome coronavirus 2, UniProt P0DTD1); experiment: Surface plasmon resonance analysis (Biacore T200); assay type: binding
# SARS-CoV-2 3CLpro [2] = target: T1, SARS-CoV-2 3CLpro; experiment: SARS-CoV-2 3CLpro inhibition assay (fluorogenic substrate Dabcyl-[…]-Edans); assay type: biochemical
# SARS-CoV 3CLpro [3] = assay type: biochemical; conditions: activity class by pIC50 threshold 6
# SARS-CoV-2 3CLpro [4] = target: T1, SARS-CoV-2 3CLpro; experiment: Literature-collected IC50 of SARS-CoV-2 3CLpro inhibitors (test set); assay type: biochemical; conditions: class from pIC50 of the literature IC50
# SARS-CoV-2 3CLpro [5] = target: T1, SARS-CoV-2 3CLpro; conditions: cited from earlier work; for IC50: unit not printed (pIC50 corresponds to µM)
# SARS-CoV 3CLpro [6] = conditions: SARS-CoV 3CLpro inhibitors (training set), ref: per compound, cited from earlier work
# [7] = SPR, 25 °C, 3CLpro-his captured on CM7 chip, read-out: KD
# [8] = SARS-CoV-2 3CLpro in vitro dose–response inhibition, read-out: IC50
# [9] = from literature IC50, ref Zhu, Wei et al. ACS pharmacology & translational science vol. 3,5 (2020): 1008-1016
# [10] = ref Zhu, Wei et al. ACS pharmacology & translational science vol. 3,5 (2020): 1008-1016
# [11] = from literature IC50, ref Jo, Seri et al. Journal of enzyme inhibition and medicinal chemistry vol. 35,1 (2020): 1539-1544
# [12] = ref Jo, Seri et al. Journal of enzyme inhibition and medicinal chemistry vol. 35,1 (2020): 1539-1544
compound,measurement,setting,value
"O=c1cc(-c2ccc(O)cc2)oc2c([C@@H]3O[C@H](CO)[C@@H](O)[C@H](O)[C@H]3O)c(O)c([C@@H]3O[C@H](CO)[C@@H](O)[C@H](O)[C@H]3O)c(O)c12 [Vicenin-2, vicenin-2]",Kd,SARS-CoV-2 3CLpro [1],8.58 µM
same,IC50,SARS-CoV-2 3CLpro [2],38.9 µM
"COc1cc(-c2oc3cc(O)cc(O)c3c(=O)c2O[C@@H]2O[C@H](CO[C@@H]3O[C@@H](C)[C@H](O)[C@@H](O)[C@H]3O)[C@@H](O)[C@H](O)[C@H]2O)ccc1O [Narcissoside, narcissoside]",Kd,SARS-CoV-2 3CLpro [1]; [7],10 µM
same,IC50,SARS-CoV-2 3CLpro [2]; [8],38.1 µM
"O=c1c(O[C@@H]2O[C@H](CO[C@@H]3O[C@H](CO)[C@@H](O)[C@H](O)[C@H]3O)[C@@H](O)[C@H](O)[C@H]2O)c(-c2ccc(O)cc2)oc2cc(O)cc(O)c12 [Kaempferol-3-O-gentiobioside, kaempferol-3-O-gentiobioside]",Kd,SARS-CoV-2 3CLpro [1]; [7],2.69 µM
same,IC50,SARS-CoV-2 3CLpro [2]; [8],35.9 µM
O=C1/C(=C\c2ccc(-c3ccccc3)o2)C(c2ccccc2)=NN1c1ccccc1 [CMP10],Inact.(<6)/Act.(>=6),SARS-CoV 3CLpro [3],Inact. (Inact.(<6))
same,Inact.(<6)/Act.(>=6),SARS-CoV-2 3CLpro [4],Inact. (Inact.(<6))
same,pIC50,SARS-CoV-2 3CLpro [5]; [9],4.652
same,pIC50,"SARS-CoV-2 3CLpro [5]; test set (SARS-CoV-2 3CLpro inhibitors), collected from literature",4.652
same,IC50,SARS-CoV-2 3CLpro [5]; [10],22.3 µM
O=c1c(O)c(-c2ccc(O)cc2)oc2c(O)c(O)cc(O)c12 [CMP83],Inact.(<6)/Act.(>=6),SARS-CoV-2 3CLpro [4],Inact. (Inact.(<6))
same,pIC50,SARS-CoV-2 3CLpro [5]; [11],4.268
same,IC50,SARS-CoV-2 3CLpro [5]; [12],53.9 µM
COc1ccc(-c2cc(=O)c3c(O)c(OC)c(OC4OC(COC5OC(C)C(O)C(O)C5O)C(O)C(O)C4O)cc3o2)cc1 (stereo not shown) [CMP84],Inact.(<6)/Act.(>=6),SARS-CoV-2 3CLpro [4],Inact. (Inact.(<6))
same,pIC50,SARS-CoV-2 3CLpro [5]; [11],4.287
same,IC50,SARS-CoV-2 3CLpro [5]; [12],51.6 µM
"O=c1cc(-c2ccc(O)cc2)oc2c([C@@H]3O[C@H](CO)[C@@H](O)[C@H](O)[C@H]3O)c(O)c([C@@H]3OC[C@H](O)[C@H](O)[C@H]3O)c(O)c12 [Isoschaftoside, isoschaftoside]",Kd,SARS-CoV-2 3CLpro [1],11.4 µM
same,IC50,SARS-CoV-2 3CLpro [2],30.2 µM
"O=C(O)c1ccccc1-c1ccc(/C=C2\C(=O)N(c3ccccc3)N=C2c2ccccc2)o1 [CMP13, reference compound]",Inact.(<6)/Act.(>=6),SARS-CoV 3CLpro [3],Inact. (Inact.(<6))
same,pIC50,SARS-CoV 3CLpro [6]; from literature IC50,4.3851
same,IC50,SARS-CoV 3CLpro [6]; literature values,41.2 µM
same,Inact.(<6)/Act.(>=6),SARS-CoV-2 3CLpro [4],Inact. (Inact.(<6))
same,pIC50,SARS-CoV-2 3CLpro [5]; [9],5.4828
same,IC50,SARS-CoV-2 3CLpro [5]; [10],3.29 µM

# Source: PMC8611036, “An integrated method for optimized identification of effective natural inhibitors against SARS-CoV-2 3CLpro” (Scientific Reports, 2021)
